Laboratory results as given in patent US9006433B2, “Substituted pyrimidines” (Merck Sharp & Dohme Corp., priority 2010, dated 2015).
pIC50: −log10 of the molar value.

What follows are molecules tested against T1, PHD2 (Homo sapiens, UniProt Q9GZT9) (assay: PHD2 inhibition assay (time resolved fluorescence, HIF-1α peptide hydroxylation / VHL complex detection)). Settings: FLAG-tagged full length PHD2; 0.2 μM 2-oxoglutarate, 0.5 μM HIF-1α peptide.
T1 construct: FLAG-tagged full length PHD2 expressed in and purified from baculovirus-infected Sf9 cells; FLAG; made in house; host or cells: baculovirus-infected Sf9 cells
T1 sequence (Q9GZT9 whole entry, species assumed): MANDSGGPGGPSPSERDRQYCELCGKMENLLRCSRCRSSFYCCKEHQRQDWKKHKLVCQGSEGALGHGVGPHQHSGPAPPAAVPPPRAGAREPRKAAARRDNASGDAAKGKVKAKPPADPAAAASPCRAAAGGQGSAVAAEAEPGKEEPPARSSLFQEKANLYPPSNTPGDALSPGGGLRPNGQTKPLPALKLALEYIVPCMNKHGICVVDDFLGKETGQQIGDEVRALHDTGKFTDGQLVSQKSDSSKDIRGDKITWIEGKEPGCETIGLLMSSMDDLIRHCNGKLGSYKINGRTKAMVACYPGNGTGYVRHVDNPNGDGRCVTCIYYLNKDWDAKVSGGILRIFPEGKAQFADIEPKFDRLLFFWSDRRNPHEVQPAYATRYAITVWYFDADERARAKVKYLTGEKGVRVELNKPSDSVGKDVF
Format: biochemical
Procedure: To each well of a 96-well plate was added 1 μL of test compound in DMSO and 20 μl of assay buffer (50 mM Iris pH 7.4/0.01% Tween-20/0.1 mg/ml bovine serum albumin/10 μM ferrous sulfate/1 mM sodium ascorbate/20 μg/ml catalase) containing 0.15 μg/ml FLAG-tagged full length PHD2 expressed in and purified from baculovirus-infected Sf9 cells. After a 30 min preincubation at room temperature, the enzymatic reactions were initiated by the addition of […] of substrates (final concentrations of 0.2 μM 2-oxoglutarate and 0.5 μM HIF-1α peptide biotinyl-DLDLEMLAPYIPMDDDFQL (SEQ ID NO:1)). After 2 hr at room temperature, the reactions were terminated and signals were developed by the addition of a 25 μL quench/detection mix to a final concentration of 1 mM ortho-phenanthroline, 0.1 mM EDTA, 0.5 nM anti-(His)6 LANCE reagent (Perkin-Elmer Life Sciences), 100 nM AF647-labeled streptavidin (Invitrogen), and 2 μg/ml (His)-6-VHL complex (S. Tan(2001) Protein Expr. Purif. 21, 224-234). The ratio of time resolved fluorescence signals at 665 and 620 nm was determined, and percent inhibition was calculated relative to an uninhibited control sample run in parallel.
With `Oc1nc(-n2cccn2)ncc1-c1cnn(Cc2ccccc2)c1` [Compound 11-2, 5-(1-benzyl-1H-pyrazol-4-yl)-2-(1H-pyrazol-1-yl)pyrimidin-4-ol] the pIC50 was 5.00 to 7.00.
In the case of `Oc1nc(-n2cccn2)ncc1-c1ccccc1` [Compound 11-3, 5-phenyl-2-(1H-pyrazol-1-yl)pyrimidin-4-ol], the pIC50 was 5.00 to 7.00.
`O=C(Cc1cnc(-n2cccn2)nc1O)Nc1ccc(Cl)cc1` [Compound 12-1, N-(4-chlorophenyl)-2-(4-hydroxy-2-(1H-pyrazol-1-yl)pyrimidin-5-yl)acetamide] gave a pIC50 of 5.00 to 7.00.
With `O=C(Cc1cnc(-n2cccn2)nc1O)NC1CCCCC1` [Compound 12-2, N-cyclohexyl-2-(4-hydroxy-2-(1H-pyrazol-1-yl)pyrimidin-5-yl)acetamide] the pIC50 was 5.00 to 7.00.
`CC(C)NC(=O)Cc1cnc(-n2cccn2)nc1O` [Compound 12-3, 2-(4-hydroxy-2-(1H-pyrazol-1-yl)pyrimidin-5-yl)-N-isopropylacetamide] was tested, and the pIC50 was 5.00 to 7.00.
In the case of `Cc1ccc(S(=O)(=O)NC(=O)c2cnc(-c3cccnn3)nc2O)cc1` [Compound 13-1, 4-hydroxy-2-(pyridazin-3-yl)-N-tosylpyrimidine-5-carboxamide], the pIC50 was 5.00 to 7.00.
